Experimental data reported in patent US6790862B2 (priority 1999, dated 2004).
In brackets after ≈: the same amount, converted by molar mass. Where two headings read alike, the source gives them in different places.

How the values were obtained:
[1] = test system: H441 (human lung adenocarcinoma); assay: MTT cytotoxicity assay, 96 hours exposure; format: cell-based; conditions: for nuclei break up into small vessicles (nuclear blebbing): H441, comparators at their respective LD50s
Experimental: (§1) The cytotoxicity of Peloruside A was tested in five cell lines:
H441 (human lung adenocarcinoma)
(§2) 32D (murine myeloid) generally in accordance with the MTT assay of Burres et al., J. Cancer Research (1989), 49, 2935-2940.
(§3) Briefly, cell lines were maintained in Dulbecco's modified Eagle's medium: F12 medium (50:50) (Gibco) supplemented with 10% fetal calf serum (Gibco), […] Penicillin G, and […] streptomycin sulfate. After 96 hours exposure to the toxin, cell viability was determined by the MTT calorimetric assay. […] Data were analysed with the SYSTAT statistical program using a non-linear model fit, and IC50 values were calculated using a Logit-Log plot.

[2] = test system: K562 cells; assay: cellular morphology; format: cell-based, human; conditions: K562, 2 days exposure, 100 nM
[3] = test system: SH-SY5Y (human neuroblastoma); assay: MTT cytotoxicity assay, 96 hours exposure; format: cell-based
Experimental: as §1
SH-SY5Y (human neuroblastoma)
as §2, §3

[4] = test system: different cell lines (H441, SY5Y, HL-60, 32D-ras, 32D, LLC-PK1); assay: MTT cell proliferation assay in the different cell lines; format: cell-based; conditions: 96 h; 4-day exposure
Experimental: (§4) Tumorigenic and non-tumorigenic cell lines were cultured as previously described in Hood K. A., West L. M., Northcote P. T., Berridge M. V., Miller J. H., Apoptosis (2001), 6, 207-219. These cell lines included HL-60 and KS62, two tumorigenic human myeloid leukemic cell lines, 32D clone 3 (32D), a non-tumorigenic murine myeloid cell line, 32D-ras, the ras-transformed derivative of 32D, H441, a human lung adenocarcinoma cell line, SH-SY5Y, a human neuroblastoma cell line, and LLC-PK1, a non-tumorigenic pig kidney cell line. IC50 values for Peloruside A in the different cell lines were determined using the tetrazolium-based MTT cell proliferation assay as previously described (Hood K. A et al.).

[5] = test system: HL-60 cells; assay: MTT cell proliferation assay; format: cell-based, human; conditions: for IC50: Homo sapiens
Experimental: as §4

[6] = test system: P388 (Murine Leukemia) cells; assay: anti-tumor assay, P388 cell growth, MTT; format: cell-based; conditions: Mus musculus, 72 hours incubation, read-out: cytotoxic to P388 murine leukemia cells (IC50)
Experimental: The bioactivity of peloruside A as an anti-tumor agent was determined by an anti-tumor assay. For the anti-tumor assay a 2-fold dilution series of the same of interest is incubated for 72 hours with P388 (Murine Leukemia) cells. The concentration of sample required to reduce the P388 cell growth by 50% (comparative to control cells) is determined using the absorbance values obtained with the yellow dye MTT tetrazollum is reduced by healthy cells to the purple colour MTT formazan. The result is expressed as an IC50 in ng/mL.

[7] = test system: H441 cells; assay: cell cycle by flow cytometry (PI) and mitotic index; format: cell-based, human; parameters: metaphase-arrested cells (mitotic index): dose or concentration left out as unconfirmed; conditions: H441, 24 h
Experimental: Using standard methodology, the DNA of cells was stained with propidium iodide (PI), and the proportion of cells in different phases of the cell cycle was monitored by flow cytometry. Briefly, H441 cells were treated with […] for 24 h. Adherent cells were collected by trypsinization and added to those in suspension. The cells were then fixed with cold 70% ethanol overnight and stained with PI solution consisting of 45 mg/mL PI, 10 mg/mL RNaseA, and 0.1% glucose. After a 2 h incubation at RT, samples were analysed in a FACSort flow cytometer (Becton Dickinson).
Cells were treated with […] Peloruside A or paclitaxel, stained with PI, and counted by flow cytometry. For the mitotic index, cells were treated for 24 h with different concentrations of Peloruside A or paclitaxel, and the number of cells in mitosis divided by the total number of cells (n=at least 400 cells counted in each of 3 preparations).

[8] = lipophilicity by thin layer chromatography; format: physicochemical
[9] = test system: 32D (murine myeloid); assay: MTT cytotoxicity assay; format: cell-based
Experimental: as §1, §2
as §3, with “After 96 hours exposure to the toxin, cell viability was determined by the MTT calorimetric assay.” left out

[10] = test system: b-tubulin in HL-60 cells; assay: in situ tubulin polymerization, immunoblot of soluble and particulate fractions; format: cell-based, human; conditions: 5 h; for b-tubulin remaining in the soluble fraction: HL-60, 100 nM; for effect on proportion of soluble to polymerized tubulin: HL-60, different concentrations
Excerpt: A simple in situ cellular assay as described by Giannakakou P., Gussio R., Nogales E., Downing K. H., Zaharevitz D., Bollbuck B., Poy G., Sackett D., Nicolaou K. C., Fojo T., Proc. Nat. Acad. Sci. (USA) (2000), 97, 2904-2909 was used in which the shift in tubulin from depolymerized to polymerized forms was followed by electrophoresis and Western blotting of centrifuged particulate and cytosolic fractions. To summarize, 2×10^6 untreated and drug-exposed HL-60 cells were lysed by exposure for 5 min at 37° C. to […] of hypotonic buffer (1 mM MgCl2, 2 mM EGTA, 1% Nonidet P-40, 2 mM phenylmethylsulfonyl fluoride, 1 mg/mL aprotinin, 2 mg/mL pepstatin, and 20 mM Tris-HCl, pH 6.8) and the particulate fraction separated from the soluble cytosolic fraction by high speed centrifugation for 10 min in a bench-top centrifuge. Samples labeled ‘0 min’ received drug immediately before collection of the cells. The processing of the cells to the critical centrifugation step required approximately 30 min. The pellet was dissolved in […] of sample buffer (8 M urea, 4% CHAPS, 3 M thiourea, and 40 mM DTT). Twenty mL of loading buffer was added to each […] sample, the samples were vortexed and then boiled for 5 min. Twenty mL of each sample was loaded on an SDS/10% polyacrylamide gel and resolved by electrophoresis. b-Tubulin bands were identified by Western blotting using b-tubulin primary antibody ( 1/1000 dilution) following standard immunoblotting procedures with detection by enhanced chemiluminescence (Lumi-Light, Roche).
Scale bar (lower right)=500 nm.

[11] = test system: H441 cells; assay: cellular morphology, phase-contrast microscopy; format: cell-based, human; conditions: for treated cells with intracellular fiber bundles: H441, 48 h; for treated cells with intracellular fiber bundles / micronuclei: 100 nM; for micronuclei: H441, 2 days exposure; for intracellular fiber bundles: H441, phase-contrast microscopy
Experimental: Phase-contrast photomicrographs of H441 human lung adenocarcinoma cells: untreated control cells (A) and cells exposed for 48 h to 100 nM Peloruside A (B) or 100 nM paclitaxel (C). Note the intracellular fiber bundles in approximately 10% of the treated cells and the numerous micronuclei, each with a dark central spot of condensed DNA. Scale bar=[…].

[12] = test system: purified tubulin; assay: in vitro tubulin polymerization and electron microscopy; format: biochemical; parameters: polymerization of purified tubulin in solution: dose or concentration left out as unconfirmed; conditions: for polymerization of purified tubulin in solution: 30 min, 37° C., electron microscopy; for stability of induced microtubules: at 0C
Experimental: Purified tubulin (approximately 7.5 mg protein) containing approximately 15% microtubule-associated proteins was obtained from Sigma and reconstituted in 0.1 M MES buffer, pH 6.8, 1 mM EGTA, 0.1 mM EDTA, 0.5 mM MgCl2, 1 mM DTT, 0.1 mM GTP, 1 mg/mL leupeptin, 1 mg/mL aprotinin, and 100 mg/mL sucrose as stabilizer. The reconstituted tubulin was incubated at 37° C. for 30 min in the presence of […] Peloruside A or […] paclitaxel. Samples […] were pipetted onto 400-mesh carbon- and Formvar-coated copper grids and left for 2 min at RT before blotting with filter paper. Each grid was stained with 5 mL of 1% uranyl acetate for 3 min at RT, then blotted with filter paper. Grids were air-dried overnight before examination in a Philips CM100 transmission electron microscope.
(B) Immunoblots following exposure to […] Peloruside A and […] paclitaxel for varying lengths of time. (C) Transmission electron micrograph of microtubules formed following treatment of purified soluble tubulin with […] Peloruside A for 30 min at 37° C. Scale bar (lower right)=500 nm.

[13] = test system: P388 (murine leukemia); assay: MTT cytotoxicity assay, 96 hours exposure; format: cell-based; conditions: P388, 96 hours exposure
Experimental: as §1, §2, §3

[14] = test system: LLC-PK1 (pig kidney); assay: MTT cytotoxicity assay, 96 hours exposure; format: cell-based; conditions: LLC-PK1, 96 hours exposure
Experimental: as §1, §2, §3

[15] = test system: HeLa cells; assay: anti-metabolic activity, WST-1 reduction; format: cell-based; parameters: stimulation of WST-1 reduction: dose or concentration left out as unconfirmed
Experimental: (§5) The effect of Peloruside A and paclitaxel on superoxide production was determined using human peripheral blood neutrophils activated with […] N-formyl-met-leu-phe (fMLP) as described previously (Tan A. S., Berridge M. V., J. Immunol. Meth. (2000), 238, 59-68). In this microplate assay, the cell-impermeable tetrazolium salt, WST-1, is reduced to its soluble formazan and dye reduction measured at 450 nm as an initial rate over 10-20 min. Samples were equilibrated with cells for 3 min at 37° C. and the reaction initiated by adding fMLP. Measurement of anti-metabolic activity followed a similar microplate protocol except that HeLa cells were used instead of neutrophils, cells were not activated with fMLP, and the intermediate electron acceptor, 1-methoxy phenazine methosulfate at 25 mM, was included in the WST-1 reagent to facilitate detection of low potential electrons from the plasma membrane.

[16] = test system: human peripheral blood neutrophils; assay: fMLP-activated respiratory burst, superoxide production (WST-1); format: cell-based; parameters: dose or concentration left out as unconfirmed
Experimental: as §5

[17] = indirect, fragment-based computational calculation; cited from earlier work

| Molecule | nuclei break up into small vessicles (nuclear blebbing) [1] | micronuclei [2] | IC50 ([5]; HL-60) [µM] | cell cycle arrest [7] | metaphase-arrested cells (mitotic index) [7] [%] | b-tubulin remaining in the soluble fraction [10] | effect on proportion of soluble to polymerized tubulin [10] | treated cells with intracellular fiber bundles [11] | micronuclei [11] | intracellular fiber bundles [11] | polymerization of purified tubulin in solution [12] | stability of induced microtubules [12] | also measured |
| --- | --- | --- | --- | --- | --- | --- | --- | --- | --- | --- | --- | --- | --- |
| C=C1C[C@](OC)([C@H](O)C(=O)N[C@H]2OCO[C@H]3[C@@H]2O[C@H](C[C@H](O)CO)C(C)(C)[C@@H]3OC)O[C@H](C)[C@@H]1C [mycalamide A, reference compound] | not been observed |  |  |  |  |  |  |  |  |  |  |  |  |
| CCC(/C=C(/C)C1C[C@H](OC)C[C@@H](O)C(C)(C)[C@]2(O)OC(CC(OC)C2O)C[C@H](OC)[C@@H](O)C(=O)O1)CO (stereo partly drawn) [Peloruside A] | nuclei of the cells were observed to break up into small vessicles | multiple micronuclei were observed | 0.007 ± 0.004 | partial cell cycle arrest at G2/M | 34±2 | No detectable b-tubulin remained in the soluble fraction | dose-dependent shifts of soluble tubulin to the particulate fraction | approximately 10% | multiple micronuclei were observed | large intracellular fiber bundles were observed | polymerize in solution into typical, long, straight microtubules | stable | retraction of dendrites [3]: no retraction of dendrites was observed; LD50 ([3]; 96 hours exposure): 14.9 nM; IC50 [4]: 0.004 to 0.015 µM; IC50 [6]: ~0.01 mg/L (≈ 0.0182 µM); lipophilicity [8]: less lipophilic than paclitaxel; LD50 ([9]; 96 hours exposure): 0.0078 µM; LD50 ([9]; viability at 24 hours of exposure): 1600 µM; LD50 [13]: 18 nM; LD50 [14]: 3.7 nM; LD50 ([1]; H441, 96 hours exposure): 6.2 nM; stimulation of WST-1 reduction [15]: 20% |
| CC(=O)O[C@H]1C(=O)[C@@]2(C)[C@H]([C@H](OC(=O)c3ccccc3)[C@]3(O)C[C@H](OC(=O)[C@H](O)[C@@H](NC(=O)c4ccccc4)c4ccccc4)C(C)=C1C3(C)C)[C@]1(OC(C)=O)CO[C@@H]1C[C@@H]2O [paclitaxel, Paclitaxel, reference compound] |  | multiple micronuclei were observed |  | partial cell cycle arrest at G2/M | 64±4 | No detectable b-tubulin remained in the soluble fraction | dose-dependent shifts of soluble tubulin to the particulate fraction | approximately 10% | multiple micronuclei were observed | large intracellular fiber bundles were observed | polymerize in solution into typical, long, straight microtubules | stable | IC50 ([5]; HL-60 cells, ± S.E.M., read-out: IC50): 0.022 ± 0.008 µM; effect on neutrophil activation [16]: no effect; effect on WST-1 reduction ([15]; 12-24 mM): little effect |
| pateamine [reference compound] | not been observed |  |  |  |  |  |  |  |  |  |  |  |  |
| CCC(/C=C(/C)C1C[C@H](OC)C[C@@H](O)C(C)(C)C(O)C(O)C(OC)C[C@H](O)C[C@H](OC)[C@@H](O)C(=O)O1)CO (stereo partly drawn) [Peloruside A reduction product] |  |  | 0.221 ± 0.024 |  |  |  | no significant effect |  |  |  |  |  | increase of IC50 relative to Peloruside A ([5]; HL-60 cells): 31 fold |
| C=C/C=C\[C@H](C)[C@H](OC(N)=O)[C@@H](C)[C@H](O)[C@@H](C)C/C(C)=C\[C@H](C)[C@@H](O)[C@@H](C)/C=C\[C@@H](O)C[C@@H]1OC(=O)[C@H](C)[C@@H](O)[C@H]1C [Discodermolide, discodermolide] |  |  |  |  |  |  |  |  |  |  |  |  | solubility relative to paclitaxel [17]: 160 fold |
